Consider six compounds from PubChem BioAssay (NCI).

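A five-concentration, 48-hour dose response in 96-well plates underlies each endpoint, interpolated linearly between surrounding concentrations. GI50 marks 50% less growth. TGI: concentration producing complete growth inhibition.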

Some test systems named below: EKVX NSCLC; M14 melanoma; SF-539 CNS; SW-620 colon; SF-268 CNS; IGROV1 ovarian; A498 renal; NCI-H460 lung; U251 CNS; UO-31 renal.
What all share (experiment): NCI tumour cell line growth inhibition, 48 h

Consider `COc1ccc(/C=C2\CCC(C)(CN(C)C)C2=O)cc1` (stereo not given), for which the TGI in the experiment with EKVX NSCLC, with M14 melanoma, with SF-539 CNS, in the experiment on SW-620 colon, with SF-268 CNS and in the experiment with IGROV1 ovarian was above 100 µM each time. The TGI in the experiment on A498 renal, in the experiment with NCI-H460 lung, with U251 CNS and with UO-31 renal was above 100 µM throughout.

With `CC1=C(C(=O)NCc2ccccc2)C(c2ccccc2[N+](=O)[O-])C(C(=O)NCc2ccccc2)=C(C)N1`, the TGI was found to be 30.1 µM with EKVX NSCLC; 23.9 µM in the experiment with M14 melanoma; 25.8 µM with SF-539 CNS; 28.1 µM with SW-620 colon; 22.9 µM in the experiment with SF-268 CNS; 40.9 µM in the experiment with IGROV1 ovarian. The TGI is 32.4 µM in the experiment with A498 renal, 31.4 µM in the experiment on NCI-H460 lung, 22.8 µM with U251 CNS and 27 µM with UO-31 renal.

With `Cc1ccccc1C(C#N)C(=O)C(=O)Nc1cccc(Cl)c1` (stereo not given), the TGI in the experiment on EKVX NSCLC is above 100 µM; in the experiment on M14 melanoma, above 100 µM; in the experiment with SF-539 CNS, above 100 µM; with SW-620 colon, 31.6 µM; in the experiment on SF-268 CNS, above 100 µM; in the experiment with IGROV1 ovarian, above 100 µM. Further, the TGI in the experiment on A498 renal, in the experiment with NCI-H460 lung, with U251 CNS and in the experiment on UO-31 renal was above 100 µM each time.

On to `CN(C)CCNC(=O)c1cccc2[nH]c(-c3ccccc3)nc12`, for which the TGI worked out at 53.5 µM with EKVX NSCLC; 31.1 µM in the experiment with M14 melanoma; 26.2 µM in the experiment with SF-539 CNS; 45.8 µM with SW-620 colon; 46.3 µM in the experiment on SF-268 CNS; 50.9 µM in the experiment with IGROV1 ovarian. In addition, the TGI in the experiment on A498 renal is 26.7 µM; with NCI-H460 lung it was 39.8 µM; in the experiment on U251 CNS, 65.1 µM; in the experiment with UO-31 renal it was 27.7 µM.

For `CC(C)=CC(=O)Cc1nc2cc(C)c(C)cc2[nH]c1=O`, the TGI in the experiment on EKVX NSCLC, in the experiment with M14 melanoma, with SF-539 CNS, with SW-620 colon, in the experiment on SF-268 CNS and in the experiment with IGROV1 ovarian was above 100 µM in each case. Further, the TGI in the experiment with A498 renal, in the experiment with NCI-H460 lung, with U251 CNS and in the experiment on UO-31 renal was above 100 µM throughout.

Consider `CCOC(=O)c1sc(Nc2ccc(Cl)cc2)nc1C`, for which the GI50 in the experiment with EKVX NSCLC was 0.969 µM; in the experiment on M14 melanoma, 1.56 µM; with SF-539 CNS it was 1.66 µM; with SW-620 colon it was 2.6 µM; in the experiment with SF-268 CNS, 1.72 µM; in the experiment on IGROV1 ovarian, 1.52 µM. The GI50 was 1.79 µM in the experiment on A498 renal, 2.34 µM with NCI-H460 lung, 1.96 µM in the experiment on U251 CNS and 1.15 µM in the experiment on UO-31 renal. The TGI worked out at 5.52 µM in the experiment with EKVX NSCLC; 3.32 µM in the experiment on M14 melanoma; 3.72 µM with SF-539 CNS; 7.54 µM in the experiment on SW-620 colon; 3.7 µM with SF-268 CNS; 4.26 µM in the experiment on IGROV1 ovarian. Besides, the TGI with A498 renal was 5.44 µM; in the experiment with NCI-H460 lung, 6.31 µM; in the experiment with U251 CNS it was 4.3 µM; in the experiment on UO-31 renal it was 2.5 µM.
